Test results taken from patent EP0000644A2, “Lower cycloalkyl substituted-benzene derivatives, the preparation thereof and their pharmaceutical compositions” (FUJISAWA PHARMACEUTICAL CO., LTD., priority 1977, dated 1979).
Converted amounts (≈) assume the structure as drawn. Structures can show the parent of a compound that is named as a salt. Where two headings read alike, the source gives them in different places.

Experiments:
erythema = test: Ultra-violet erythema test, oral administration; format: in vivo, Hartley rats; details: ten animals per group; oral suspension, half one hour before and half just after ultra-violet radiation; erythema scored two hours later; effective when total of 3 points below 1.5; read-out: Score
Procedure: Ten male 5 week old Hartley rats, each weighing about 350 g., were used per group. The backs of each animal were depilated 24 hours before the test. An adhesive tape with 3 small holes of 9 mm. diameter was placed on the depilated skin and then the animal was exposed to ultra-violet radiation from an ultra-violet lamp (500 W, manufactured by Engelhard Hanovia Inc.) at a distance of 13 cm. for 80 seconds. Two hours later, the degree of erythema was estimated on the basis of the following scores: • 1.0 : eryhthema with clear border, • 0.5 : erythema with unclear border, • 0.0 : scarcely any erythema.
The valuation was determined as follows:
Each dosage of the test compound was administered orally in a suspension form in 20 ml. of 0.5% aqueous methyl cellosolve aqueous solution. Half of the test sample was administered one hour before the radiation and the remaining half of the test solution was administered just after radiation.

strip of stomach fundus = test: Contraction of isolated stomach fundus strip induced by arachidonic acid; format: cell-based, Sprague-Dawley rats; details: Rattus norvegicus, 0.25 h
Procedure: The stomach was removed from Sprague-Dawley rats, weighing about 180 g., after the animals were fasted overnight. A strip of stomach fundus was suspended under initial tension of 0.6 g. in a 10 ml. organ bath containing Tyrode solution. Arachidonic acid (1.0 x 10^-5 g/ml.) was employed as the spasmogen. Several doses of the test compound were added to the individnal bath fluid 15 minutes before the addition of arachidonic acid. The value of contraction induced by arachidonic acid was measured and plotted as a dose-activity curve. The ED50 value of each test compound was obtained by interpolation from the dose-activity curve.

[1] = arachidonic acid 1.0 x 10^-5 g/ml. as spasmogen, test compound added 15 minutes before, interpolated from dose-activity curve, read-out: ED50 (the source's name)

CC(=O)CC(C(=O)O)c1ccc(C2CCCCC2)cc1 (centres unmarked) [15-(2), 2-(4-cyclohexylphenyl)-3-acetylpropionic acid]
minimal effective dose (erythema): 8 to 10 mg/kg
IC50 (strip of stomach fundus; [1]): 3.2 µg/mL (≈ 11.7 µM)

COCC(C(=O)O)c1ccc(C2CCCCC2)cc1 (centres unmarked) [17-(2), 2-(4 cyclohexylphenyl)-3-methoxypropionic acid]
minimal effective dose (erythema): 8 to 10 mg/kg
IC50 (strip of stomach fundus; [1]): 1.3 µg/mL (≈ 4.96 µM)

CNCC(CO)c1ccc(C2CCCCC2)cc1 (centres unmarked) [21-(2), 2-(4-cyclohcxylphenyl)-3-mcthylaminopropanol hydrochloride]
minimal effective dose (erythema): 8 to 10 mg/kg

CCCOCC(C(=O)[O-])c1ccc(C2CCCCC2)cc1.[Na+] (centres unmarked) [12-(2), sodium 2-(4-cyclohexylphenyl)-3-propoxypropionate]
minimal effective dose (erythema): 8 to 10 mg/kg
IC50 (strip of stomach fundus; read-out: ED50): 2.6 µg/mL

O=C(O)C(CO)c1ccc(C2CCCCC2)c(Cl)c1 (centres unmarked) [Example 9, m-chloro-p-cyclohexyl tropic acid]
minimal effective dose (erythema): 8 to 10 mg/kg
IC50 (strip of stomach fundus; [1]): 0.26 µg/mL (≈ 0.919 µM)

CC(=O)Oc1ccccc1C(=O)O [aspirin, reference compound]
IC50 (strip of stomach fundus; read-out: ED50): 3.1 µg/mL (≈ 17.2 µM)

COC(=O)C(COC(C)=O)c1ccc(C2CCCCC2)c(Cl)c1 (centres unmarked) [5-(3), methyl 3-acetoxy-2-(3-chloro-4-cyclohexylphenyl) propionate]
minimal effective dose (erythema): 8 to 10 mg/kg
IC50 (strip of stomach fundus; [1]): 0.12 µg/mL (≈ 0.354 µM)

CNCC(C(=O)O)c1ccc(C2CCCCC2)cc1 (centres unmarked) [Example 22, sodium 2-(4-cyclohexylphenyl)-3-methylaminopropionate monohydrate]
minimal effective dose (erythema): 8 to 10 mg/kg

OCC(CO)c1ccc(C2CCCCC2)c(Cl)c1 [Example 7-(1), 2-(3-chloro-4-cyclohexylphenyl)propane-1,3-diol]
minimal effective dose (erythema): 8 to 10 mg/kg
IC50 (strip of stomach fundus; [1]): 1.2 µg/mL (≈ 4.46 µM)

COCC(CO)c1ccc(C2CCCCC2)c(Cl)c1 (centres unmarked) [7-(2), 2-(3-chloro-4-cyclohexylphenyl)-3-methoxypropanol]
IC50 (strip of stomach fundus; [1]): 0.5 µg/mL (≈ 1.77 µM)

CS(=O)(=O)NCC(CO)c1ccc(C2CCCCC2)cc1 (centres unmarked) [14-(3), 2-(4-cyclohexylphenyl)-3-mesylaminopropanol]
minimal effective dose (erythema): 8 to 10 mg/kg
IC50 (strip of stomach fundus; [1]): 22 µg/mL (≈ 70.6 µM)

COCC(C(=O)O)c1ccc(C2CCCCC2)c(Cl)c1 (centres unmarked) [4-(3), sodium 2-(3-chloro-4-cyclohexylphenyl)-3-methoxypropionatc]
minimal effective dose (erythema): 8 to 10 mg/kg
IC50 (strip of stomach fundus; [1]): 0.084 µg/mL

CC(=O)CC(CO)c1ccc(C2CCCCC2)cc1 (centres unmarked) [16-(3), 2-(4-cyclohexylphenyl)-3-acetylpropanol]
minimal effective dose (erythema): 8 to 10 mg/kg

COCC(COC(=O)COc1ccc(Cl)cc1)c1ccc(C2CCCCC2)cc1 (centres unmarked) [Example 20, 1-(4-chlorophenoxyacetoxy)-2-(4-cyclohexylphenyl)-3-methoxypropane]
minimal effective dose (erythema): 8 to 10 mg/kg

COCC(CO)c1ccc(C2CCCCC2)c(Cl)c1 (centres unmarked) [Example 23, 2-(3-chloro-4-cyclohexylphenyl)-3-methoxypropanol]
minimal effective dose (erythema): 8 to 10 mg/kg

COC(=O)C(CN1CCCCC1)c1ccc(C2CCCCC2)c(Cl)c1 (centres unmarked) [Example 11, methyl 2-(3-chloro-4-cyclohexylphcnyl)-3-piperidinopropionate hydrochloride]
minimal effective dose (erythema): 8 to 10 mg/kg

O=C(O)C(CO)c1ccc(C2CCCCC2)cc1 (centres unmarked) [Example 2, p-cyclohexyltropic acid]
minimal effective dose (erythema): 8 to 10 mg/kg
IC50 (strip of stomach fundus; [1]): 2.6 µg/mL (≈ 10.5 µM)

CC(=O)CC(C(=O)O)c1ccc(C2CCCCC2)c(Cl)c1 (centres unmarked) [24-(2), 2-(3-chloro-4-cyclohexylphenyl)-3-acetylpropionic acid]
minimal effective dose (erythema): 8 to 10 mg/kg
IC50 (strip of stomach fundus; [1]): 4.2 µg/mL (≈ 13.6 µM)

CC(=O)OCC(COC(C)=O)c1ccc(C2CCCCC2)c(Cl)c1 [Example 8, 1,3-diacetoxy-2-(3-chloro-4-cyclohexylphenyl)propane]
minimal effective dose (erythema): 8 to 10 mg/kg
